Experimental data taken from US20110060044A1, “ALIPHATIC ACID-CONTAINING N-HALOGENATED AMINO ACID FORMULATIONS” (ALCON RESEARCH, LTD., priority 2007, published 2011).
“Also recorded” adds a separate entry of the source.

Legend:
S. aureus = assay: Antimicrobial activity (time-kill viability) evaluation with S. aureus; assay type: cell-based; conditions: measured by viable cells per mL, Table 1 / FIG. 1
Method: The antimicrobial activity of the formulations according to embodiments of the present invention were evaluated by a standard microbiological analysis. […] For the evaluation, bacterial and fungal isolates were grown overnight on appropriate agar media as source of fresh cells. A suspension of these fresh cells was prepared in saline at approximately 1×10^8 cfu/mL. These suspensions were added directly to the test agents (various solutions of sodium 2,2-dimethyl-N,N-dichlorotaurine and control solutions). The initial concentration of cells in the test agent solutions was approximately 1×10^6 cfu/mL. The exposure of microorganisms to the test agent was conducted at room temperature for up to 60 minutes. At selected times, an aliquot was withdrawn and diluted into phosphate buffered saline at 4° C. Viability was determined following serial dilution and filtration onto Milliflex cassettes.

C. albicans = assay: Antimicrobial activity (time-kill viability) evaluation with C. albicans; assay type: cell-based; conditions: measured by viable cells per mL, Table 2 / FIG. 2
Method: The antimicrobial activity of the formulations according to embodiments of the present invention were evaluated by a standard microbiological analysis. The results of this evaluation are summarized in Tables 1 and 2 below and are shown graphically in FIGS. 1 and 2. For the evaluation, bacterial and fungal isolates were grown overnight on appropriate agar media as source of fresh cells. A suspension of these fresh cells was prepared in saline at approximately 1×10^8 cfu/mL. These suspensions were added directly to the test agents (various solutions of sodium 2,2-dimethyl-N,N-dichlorotaurine and control solutions). The initial concentration of cells in the test agent solutions was approximately 1×10^6 cfu/mL. The exposure of microorganisms to the test agent was conducted at room temperature for up to 60 minutes. At selected times, an aliquot was withdrawn and diluted into phosphate buffered saline at 4° C. Viability was determined following serial dilution and filtration onto Milliflex cassettes.

CC(C)(CS(=O)(=O)O)N(Cl)Cl [2,2-dimethyl-N,N-dichlorotaurine]
anti-infective (antimicrobial) activity when the formulation contained sodium acetate (S. aureus): dramatically improved; also recorded: increased
anti-infective (antimicrobial) activity when the formulation contained sodium acetate (C. albicans): dramatically improved; also recorded: increased
